Where two headings read alike, the source gives them in different places.
Assays:
[1] = Stability in human K3-EDTA plasma under different test conditions; assay type: in vitro ADME
Experimental: Likewise, a wide range of long-term stability tests reflecting the sort of real-world storage issues that can occur in hospital-based clinical studies (e.g., short-term storage at -20°C before transfer to -80°C, availability of -60°C but not -80°C), was evaluated to ensure plasma samples are analyzed before degradation can occur. Therefore, the following plasma stability tests were performed: room temperature, freeze thaw (one cycle consisted of 2 hours at room temperature followed by freezing for at least 12 hours at -80°C ± 10°C) and long-term (at -20°C ± 5°C, -60°C ± 10°C and -80°C ± 10°C). For each stability test, two concentrations (LQC and HQC) and six replicates per level were analyzed. For acceptance criteria, the precision (%CV) was ≤15% and the bias when compared with the nominal concentration was ±15%. […]

[2] = set-up: method as in PMID 35042701; details: patients, radio-labeled lurbinectedin mass balance study; cited from earlier work
[3] = set-up: method as in PMID 35042701; details: NHPs; cited from earlier work
[4] = Chemical stability of M4 reference standard on isolation; assay type: physicochemical; details: column chromatography on silica gel or reversed-phase chromatography
Experimental: The chemical synthesis of the reference standard for M4 was not feasible. […] Therefore, M4 and M4-d4 solutions were biosynthetically obtained following the incubation of lurbinectedin and PM040038, respectively, in liver microsomes according to a three-step method described elsewhere.

[5] = assay type: in vitro ADME; details: human, 120 min, 10 ng/mL
Experimental: To ensure correct sample collection during the clinical trial procedures, whole-blood (using K3-EDTA as anticoagulant) stability was studied by spiking the blood (lurbinectedin at 20 ng/mL and M4 and M6 at 10 ng/mL). Aliquots of the whole blood were then centrifuged at 4°C for 0, 30, 60, 90 and 120 minutes post equilibration (15 minutes at 37°C) to produce plasma, which was then frozen prior to analysis. This was performed at room temperature (and in an ice bath for lurbinectedin). The derived plasma samples were analyzed in triplicate, and the criterion for acceptance was defined as having a response within ±15% of the zero-minute sample.

[6] = Stability of stock and working solutions at -20°C; assay type: physicochemical; details: 1 mg/mL in DMSO, -20°C ±5°C
Experimental: The stability of stock and working solutions, as well the stability of IS stock solution, following storage at -20°C ±5°C were investigated by concordance verification by comparing the stored solution against a freshly prepared one.

[7] = 5 freeze-thaw cycles, nom. conc. 1.5 ng/mL
[8] = 5 freeze-thaw cycles, nom. conc. 16 ng/mL
[9] = -80°C ±10°C, 197 days, nom. conc. 1.5 ng/mL
[10] = -80°C ±10°C, 197 days, nom. conc. 16 ng/mL
[11] = Ambient, 6 hours, nom. conc. 1.5 ng/mL
[12] = Ambient, 6 hours, nom. conc. 16 ng/mL
[13] = -80°C ±10°C, 237 days, nom. conc. 1.5 ng/mL
[14] = -80°C ±10°C, 237 days, nom. conc. 16 ng/mL
[15] = Ambient, 21.8 hours, nom. conc. 1.5 ng/mL
[16] = Ambient, 21.8 hours, nom. conc. 16 ng/mL

COc1ccc2[nH]c3c(c2c1)CCN[C@]31CS[C@@H]2c3c(OC(C)=O)c(C)c(O)c(O)c3[C@H](COC1=O)N1[C@@H]2[C@H]2c3c(cc(C)c(OC)c3O)C[C@@H]([C@@H]1O)N2C [M4, 1′,3′-dihydroxy-lurbinectedin] gave a Bias [1, 7] of 5%, a Measured conc. [1, 7] of 1.58 ng/mL and a Bias [1, 8] of -3%. For the same compound, the Measured conc. [1, 8] was 15.6 ng/mL, the Bias [1, 9] was 3% and the Measured conc. [1, 9] was 1.54 ng/mL. For the same compound, the Bias [1, 10] was -1%, the Measured conc. [1, 10] was 15.8 ng/mL and the Bias [1, 11] was -7%. It also gave a Measured conc. [1, 11] of 1.40 ng/mL, a Bias [1, 12] of -14% and a Measured conc. [1, 12] of 13.7 ng/mL. For the same compound, the “circulating metabolite in plasma, % compared with parent compound” value (“circulating metabolite in plasma, %” below) [2] was 14.3%, the “circulating metabolite in plasma, %” value [3] was 0.9% and the “stability on isolation by conventional methods” value [4] was “too unstable to be isolated”. For the same compound, the “difference in concentration from time zero to 120 minutes” value [5] was -3%.
COc1ccc2[nH]c3c(c2c1)CCN[C@]31CS[C@@H]2c3c(OC(C)=O)c(C)c4c(c3[C@H](COC1=O)N1[C@@H]2[C@@H]2N[C@@H](Cc3cc(C)c(OC)c(O)c32)[C@@H]1O)OCO4 [M6, N-desmethyl-lurbinectedin] showed a Bias [1, 7] of 13%, a Measured conc. [1, 7] of 1.69 ng/mL and a Bias [1, 8] of 14%. It also gave a Measured conc. [1, 8] of 18.2 ng/mL, a Bias [1, 13] of 13% and a Measured conc. [1, 13] of 1.70 ng/mL. The Bias [1, 14] was 15%, the Measured conc. [1, 14] was 18.4 ng/mL and the Bias [1, 15] was 5%. The Measured conc. [1, 15] was 1.58 ng/mL, the Bias [1, 16] was 5% and the Measured conc. [1, 16] was 16.8 ng/mL. For the same compound, the “circulating metabolite in plasma, %” value [2] was 10.4%, the “circulating metabolite in plasma, %” value [3] was 0.4% and the “difference in concentration from time zero to 120 minutes” value [5] was -8%. The “stability of stock solution in DMSO” value [6] was ≥ 28 days.
With [2H]C1([2H])N[C@]2(CS[C@@H]3c4c(OC(C)=O)c(C)c5c(c4[C@H](COC2=O)N2[C@@H]3[C@@H]3N[C@@H](Cc4cc(C)c(OC)c(O)c43)[C@@H]2O)OCO5)c2[nH]c3ccc(OC)cc3c2C1([2H])[2H] [PM190539, N-Desmethyl-lurbinectedin-d4] the “stability of stock solution in DMSO” value [6] was ≥ 28 days.
In the case of [2H]C1([2H])N[C@]2(CS[C@@H]3c4c(OC(C)=O)c(C)c5c(c4[C@H](COC2=O)N2[C@@H]3[C@H]3c4c(cc(C)c(OC)c4O)C[C@@H]([C@@H]2O)N3C)OCO5)c2[nH]c3ccc(OC)cc3c2C1([2H])[2H] [PM040038], the “stability of stock solution in DMSO” value [6] is reported as ≥ 36 days.

From PMC10062662, “Quantitative determination of lurbinectedin, its unbound fraction and its metabolites in human plasma utilizing ultra-performance LC–MS/MS” (PLOS ONE, 2023)
